Measured values published in patent US9271993B2, “Treatment of bacterial infectious diseases” (priority 2010, dated 2016).
Like-named read-outs stand apart in the source and are kept apart here.

Assays:
[1] = tested on: clinical isolates of M. tuberculosis; format: cell-based
[2] = tested on: clinical isolates of multidrug-resistant M. tuberculosis

NCC[C@H](O)C(=O)N[C@@H]1C[C@H](N)[C@@H](O[C@H]2O[C@H](CN)[C@@H](O)[C@H](O)[C@H]2O)[C@H](O)[C@H]1O[C@H]1O[C@H](CO)[C@@H](O)[C@H](N)[C@H]1O [Amikacin]
Activity (resistant/susceptible) ([1]; strain 176949/08, 0.25 μg/ml): R | Activity (resistant/susceptible) ([1]; strain 176949/08, 1 μg/ml): S | Activity (resistant/susceptible) ([1]; strain 176949/08, 4 μg/ml): S | Activity (resistant/susceptible) ([1]; strain 177581/08, 0.25 μg/ml): R | Activity (resistant/susceptible) ([1]; strain 177581/08, 1 μg/ml): S | Activity (resistant/susceptible) ([1]; strain 177581/08, 4 μg/ml): S | Activity (resistant/susceptible) ([1]; strain 177958/08, 0.25 μg/ml): R | Activity (resistant/susceptible) ([1]; strain 177958/08, 1 μg/ml): S | Activity (resistant/susceptible) ([1]; strain 177958/08, 4 μg/ml): S | Activity (resistant/susceptible) ([1]; strain 178331/08, 0.25 μg/ml): R | Activity (resistant/susceptible) ([1]; strain 178331/08, 1 μg/ml): S | Activity (resistant/susceptible) ([1]; strain 178331/08, 4 μg/ml): S | Activity (resistant/susceptible) ([1]; strain 178557/08, 0.25 μg/ml): R | Activity (resistant/susceptible) ([1]; strain 178557/08, 1 μg/ml): S | Activity (resistant/susceptible) ([1]; strain 178557/08, 4 μg/ml): S

CNC1C(OC2OC(CO)C(N)C(O)C2O)OC2CC(N)C(OC3C(N)CC(N)C(O)C3O)OC2C1O (centres unmarked) [Apramycin]
Activity (resistant/susceptible) ([1]; strain 176949/08, 0.25 μg/ml): R | Activity (resistant/susceptible) ([1]; strain 176949/08, 1 μg/ml): S | Activity (resistant/susceptible) ([1]; strain 176949/08, 4 μg/ml): S | Activity (resistant/susceptible) ([1]; strain 177581/08, 0.25 μg/ml): R | Activity (resistant/susceptible) ([1]; strain 177581/08, 1 μg/ml): S | Activity (resistant/susceptible) ([1]; strain 177581/08, 4 μg/ml): S | Activity (resistant/susceptible) ([1]; strain 177712/08, 0.25 μg/ml): R | Activity (resistant/susceptible) ([1]; strain 177712/08, 1 μg/ml): S | Activity (resistant/susceptible) ([1]; strain 177712/08, 4 μg/ml): S | Activity (resistant/susceptible) ([1]; strain 177809/08, 0.25 μg/ml): R | Activity (resistant/susceptible) ([1]; strain 177809/08, 1 μg/ml): S | Activity (resistant/susceptible) ([1]; strain 177809/08, 4 μg/ml): S | Activity (resistant/susceptible) ([1]; strain 177958/08, 0.25 μg/ml): R | Activity (resistant/susceptible) ([1]; strain 177958/08, 1 μg/ml): S | Activity (resistant/susceptible) ([1]; strain 177958/08, 4 μg/ml): S | Activity (resistant/susceptible) ([1]; strain 178122/08, 0.25 μg/ml): R | Activity (resistant/susceptible) ([1]; strain 178122/08, 1 μg/ml): S | Activity (resistant/susceptible) ([1]; strain 178122/08, 4 μg/ml): S | Activity (resistant/susceptible) ([1]; strain 178242/08, 0.25 μg/ml): R | Activity (resistant/susceptible) ([1]; strain 178242/08, 1 μg/ml): S | Activity (resistant/susceptible) ([1]; strain 178242/08, 4 μg/ml): S | Activity (resistant/susceptible) ([1]; strain 178331/08, 0.25 μg/ml): R | Activity (resistant/susceptible) ([1]; strain 178331/08, 1 μg/ml): S | Activity (resistant/susceptible) ([1]; strain 178331/08, 4 μg/ml): S | Activity (resistant/susceptible) ([1]; strain 178557/08, 0.25 μg/ml): R | Activity (resistant/susceptible) ([1]; strain 178557/08, 1 μg/ml): S | Activity (resistant/susceptible) ([1]; strain 178557/08, 4 μg/ml): S | Activity (resistant/susceptible) ([1]; strain 178594/08, 0.25 μg/ml): R | Activity (resistant/susceptible) ([1]; strain 178594/08, 1 μg/ml): S | Activity (resistant/susceptible) ([1]; strain 178594/08, 4 μg/ml): S | Activity (resistant/susceptible) ([2]; strain 186002/10, 0.25 μg/ml): R | Activity (resistant/susceptible) ([2]; strain 186002/10, 1 μg/ml): S | Activity (resistant/susceptible) ([2]; strain 186002/10, 4 μg/ml): S | Activity (resistant/susceptible) ([2]; strain 186002/10, 10 μg/ml): S | Activity (resistant/susceptible) ([2]; strain 186005/09, 0.25 μg/ml): R | Activity (resistant/susceptible) ([2]; strain 186005/09, 1 μg/ml): S | Activity (resistant/susceptible) ([2]; strain 186005/09, 4 μg/ml): S | Activity (resistant/susceptible) ([2]; strain 186005/09, 10 μg/ml): S | Activity (resistant/susceptible) ([2]; strain 186010/09, 0.25 μg/ml): R | Activity (resistant/susceptible) ([2]; strain 186010/09, 1 μg/ml): S | Activity (resistant/susceptible) ([2]; strain 186010/09, 4 μg/ml): S | Activity (resistant/susceptible) ([2]; strain 186010/09, 10 μg/ml): S | Activity (resistant/susceptible) ([2]; strain 186013/09, 0.25 μg/ml): R | Activity (resistant/susceptible) ([2]; strain 186013/09, 1 μg/ml): S | Activity (resistant/susceptible) ([2]; strain 186013/09, 4 μg/ml): S | Activity (resistant/susceptible) ([2]; strain 186013/09, 10 μg/ml): S | Activity (resistant/susceptible) ([2]; strain 186014/09, 0.25 μg/ml): R | Activity (resistant/susceptible) ([2]; strain 186014/09, 1 μg/ml): S | Activity (resistant/susceptible) ([2]; strain 186014/09, 4 μg/ml): S | Activity (resistant/susceptible) ([2]; strain 186014/09, 10 μg/ml): S

[H]/N=C(/N)N[C@H]1[C@H](O)[C@@H](O)[C@H](O[C@@H]2O[C@@H](C)[C@](O)(C=O)[C@H]2O[C@@H]2O[C@@H](CO)[C@H](O)[C@@H](O)[C@@H]2NC)[C@@H](N/C(N)=N\[H])[C@@H]1O [Streptomycin]
Activity (resistant/susceptible) ([1]; strain 176949/08, 0.25 μg/ml): S | Activity (resistant/susceptible) ([1]; strain 176949/08, 1 μg/ml): S | Activity (resistant/susceptible) ([1]; strain 176949/08, 4 μg/ml): S | Activity (resistant/susceptible) ([1]; strain 177581/08, 0.25 μg/ml): S | Activity (resistant/susceptible) ([1]; strain 177581/08, 1 μg/ml): S | Activity (resistant/susceptible) ([1]; strain 177581/08, 4 μg/ml): S | Activity (resistant/susceptible) ([1]; strain 177958/08, 0.25 μg/ml): R | Activity (resistant/susceptible) ([1]; strain 177958/08, 1 μg/ml): S | Activity (resistant/susceptible) ([1]; strain 177958/08, 4 μg/ml): S | Activity (resistant/susceptible) ([1]; strain 178331/08, 0.25 μg/ml): R | Activity (resistant/susceptible) ([1]; strain 178331/08, 1 μg/ml): S | Activity (resistant/susceptible) ([1]; strain 178331/08, 4 μg/ml): S | Activity (resistant/susceptible) ([1]; strain 178557/08, 0.25 μg/ml): R | Activity (resistant/susceptible) ([1]; strain 178557/08, 1 μg/ml): S | Activity (resistant/susceptible) ([1]; strain 178557/08, 4 μg/ml): S
